From the supplement of paper PMC8612539
≈ marks a conversion by molar mass, not a printed value.

Test system: Escherichia coli
Test: minimum inhibitory concentration (MIC)
Procedure: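 Broth microdilution MIC (Sensititre BOPO7F bovine plate, CLSI methods) of 19 antimicrobials against field isolates of P. multocida, M. haemolytica, H. somni (deep nasopharyngeal swabs) and E. coli, Enterococcus spp. (rectal swabs) from weaned dairy heifers. Incubation 16-24 h at 35 C. MIC is the lowest concentration preventing visible growth. Values with <= or > lie at the tested range limits. Trimethoprim-sulfamethoxazole is given as the trimethoprim component of a 1:19 mixture.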

CNC(C)C1CCC(N)C(OC2C(N)CC(N)C(OC3OCC(C)(O)C(NC)C3O)C2O)O1 (stereo not given) [Gentamicin]
Conditions	minimum inhibitory concentration [µg/mL]
isolate (source animal id): 8	≤ 1
isolate (source animal id): 9	≤ 1
isolate (source animal id): 10	≤ 1
isolate (source animal id): 11	≤ 1
isolate (source animal id): 12	≤ 1
isolate (source animal id): 13	≤ 1
isolate (source animal id): 14	≤ 1
isolate (source animal id): 15	≤ 1
isolate (source animal id): 16	≤ 1
isolate (source animal id): 98	≤ 1
isolate (source animal id): 99	≤ 1
isolate (source animal id): 100	≤ 1
isolate (source animal id): 101	≤ 1
isolate (source animal id): 102	≤ 1
isolate (source animal id): 103	≤ 1
isolate (source animal id): 104	≤ 1
isolate (source animal id): 105	≤ 1
isolate (source animal id): 106	≤ 1
isolate (source animal id): 107	≤ 1
isolate (source animal id): 108	≤ 1
isolate (source animal id): 109	≤ 1
isolate (source animal id): 110	≤ 1
isolate (source animal id): 111	≤ 1
isolate (source animal id): 112	≤ 1
isolate (source animal id): 113	≤ 1
isolate (source animal id): 114	≤ 1
isolate (source animal id): 115	≤ 1
isolate (source animal id): 116	≤ 1
isolate (source animal id): 117	≤ 1
isolate (source animal id): 118	≤ 1
isolate (source animal id): 119	≤ 1
isolate (source animal id): 120	≤ 1
isolate (source animal id): 121	≤ 1
isolate (source animal id): 122	8 (≈ 16.8 µM)
isolate (source animal id): 123	≤ 1
isolate (source animal id): 124	2 (≈ 4.19 µM)
isolate (source animal id): 125	≤ 1
isolate (source animal id): 126	≤ 1
isolate (source animal id): 127	≤ 1
isolate (source animal id): 128	≤ 1
isolate (source animal id): 129	≤ 1
isolate (source animal id): 130	≤ 1
isolate (source animal id): 131	≤ 1
isolate (source animal id): 132	≤ 1
isolate (source animal id): 133	≤ 1
isolate (source animal id): 134	≤ 1
isolate (source animal id): 135	≤ 1
isolate (source animal id): 136	≤ 1
isolate (source animal id): 137	≤ 1
isolate (source animal id): 138	≤ 1
isolate (source animal id): 139	≤ 1
isolate (source animal id): 140	≤ 1
isolate (source animal id): 141	≤ 1
isolate (source animal id): 142	≤ 1
isolate (source animal id): 143	≤ 1
isolate (source animal id): 144	≤ 1
isolate (source animal id): 145	≤ 1
isolate (source animal id): 146	≤ 1
isolate (source animal id): 147	≤ 1
isolate (source animal id): 148	≤ 1
isolate (source animal id): 149	≤ 1
isolate (source animal id): 150	≤ 1
isolate (source animal id): 151	≤ 1
isolate (source animal id): 152	≤ 1
isolate (source animal id): 153	≤ 1
isolate (source animal id): 154	≤ 1
isolate (source animal id): 155	≤ 1
isolate (source animal id): 156	≤ 1
isolate (source animal id): 157	≤ 1
isolate (source animal id): 158	≤ 1
isolate (source animal id): 159	≤ 1
isolate (source animal id): 160	≤ 1
isolate (source animal id): 161	≤ 1
isolate (source animal id): 162	≤ 1
isolate (source animal id): 163	≤ 1
isolate (source animal id): 164	≤ 1
isolate (source animal id): 165	≤ 1
isolate (source animal id): 166	≤ 1
isolate (source animal id): 167	≤ 1
isolate (source animal id): 168	≤ 1
isolate (source animal id): 169	≤ 1
isolate (source animal id): 170	≤ 1
isolate (source animal id): 171	≤ 1
isolate (source animal id): 172	≤ 1
isolate (source animal id): 173	≤ 1
isolate (source animal id): 174	≤ 1
isolate (source animal id): 175	≤ 1
isolate (source animal id): 176	≤ 1
isolate (source animal id): 177	≤ 1
isolate (source animal id): 178	≤ 1
isolate (source animal id): 179	≤ 1
isolate (source animal id): 180	4 (≈ 8.38 µM)
isolate (source animal id): 181	≤ 1
isolate (source animal id): 182	≤ 1
isolate (source animal id): 183	≤ 1
isolate (source animal id): 184	≤ 1
isolate (source animal id): 185	≤ 1
isolate (source animal id): 186	≤ 1
isolate (source animal id): 187	8 (≈ 16.8 µM)
isolate (source animal id): 188	≤ 1

CO/N=C(\C(=O)N[C@@H]1C(=O)N2C(C(=O)O)=C(CSC(=O)c3ccco3)CS[C@H]12)c1csc(N)n1 [Ceftiofur]
Conditions	minimum inhibitory concentration [µg/mL]
isolate (source animal id): 8	0.5 (≈ 0.955 µM)
isolate (source animal id): 9	1 (≈ 1.91 µM)
isolate (source animal id): 10	≤ 0.25
isolate (source animal id): 11	≤ 0.25
isolate (source animal id): 12	0.5 (≈ 0.955 µM)
isolate (source animal id): 13	> 8
isolate (source animal id): 14	> 8
isolate (source animal id): 15	≤ 0.25
isolate (source animal id): 16	0.5 (≈ 0.955 µM)
isolate (source animal id): 98	0.5 (≈ 0.955 µM)
isolate (source animal id): 99	0.5 (≈ 0.955 µM)
isolate (source animal id): 100	≤ 0.25
isolate (source animal id): 101	≤ 0.25
isolate (source animal id): 102	0.5 (≈ 0.955 µM)
isolate (source animal id): 103	0.5 (≈ 0.955 µM)
isolate (source animal id): 104	≤ 0.25
isolate (source animal id): 105	0.5 (≈ 0.955 µM)
isolate (source animal id): 106	0.5 (≈ 0.955 µM)
isolate (source animal id): 107	≤ 0.25
isolate (source animal id): 108	≤ 0.25
isolate (source animal id): 109	≤ 0.25
isolate (source animal id): 110	0.5 (≈ 0.955 µM)
isolate (source animal id): 111	≤ 0.25
isolate (source animal id): 112	≤ 0.25
isolate (source animal id): 113	0.5 (≈ 0.955 µM)
isolate (source animal id): 114	0.5 (≈ 0.955 µM)
isolate (source animal id): 115	4 (≈ 7.64 µM)
isolate (source animal id): 116	0.5 (≈ 0.955 µM)
isolate (source animal id): 117	≤ 0.25
isolate (source animal id): 118	0.5 (≈ 0.955 µM)
isolate (source animal id): 119	1 (≈ 1.91 µM)
isolate (source animal id): 120	0.5 (≈ 0.955 µM)
isolate (source animal id): 121	0.5 (≈ 0.955 µM)
isolate (source animal id): 122	0.5 (≈ 0.955 µM)
isolate (source animal id): 123	≤ 0.25
isolate (source animal id): 124	0.5 (≈ 0.955 µM)
isolate (source animal id): 125	0.5 (≈ 0.955 µM)
isolate (source animal id): 126	0.5 (≈ 0.955 µM)
isolate (source animal id): 127	0.5 (≈ 0.955 µM)
isolate (source animal id): 128	8 (≈ 15.3 µM)
isolate (source animal id): 129	0.5 (≈ 0.955 µM)
isolate (source animal id): 130	0.5 (≈ 0.955 µM)
isolate (source animal id): 131	0.5 (≈ 0.955 µM)
isolate (source animal id): 132	> 8
isolate (source animal id): 133	0.5 (≈ 0.955 µM)
isolate (source animal id): 134	0.5 (≈ 0.955 µM)
isolate (source animal id): 135	0.5 (≈ 0.955 µM)
isolate (source animal id): 136	0.5 (≈ 0.955 µM)
isolate (source animal id): 137	0.5 (≈ 0.955 µM)
isolate (source animal id): 138	≤ 0.25
isolate (source animal id): 139	≤ 0.25
isolate (source animal id): 140	0.5 (≈ 0.955 µM)
isolate (source animal id): 141	0.5 (≈ 0.955 µM)
isolate (source animal id): 142	0.5 (≈ 0.955 µM)
isolate (source animal id): 143	2 (≈ 3.82 µM)
isolate (source animal id): 144	8 (≈ 15.3 µM)
isolate (source animal id): 145	0.5 (≈ 0.955 µM)
isolate (source animal id): 146	≤ 0.25
isolate (source animal id): 147	8 (≈ 15.3 µM)
isolate (source animal id): 148	≤ 0.25
isolate (source animal id): 149	≤ 0.25
isolate (source animal id): 150	0.5 (≈ 0.955 µM)
isolate (source animal id): 151	≤ 0.25
isolate (source animal id): 152	≤ 0.25
isolate (source animal id): 153	≤ 0.25
isolate (source animal id): 154	0.5 (≈ 0.955 µM)
isolate (source animal id): 155	≤ 0.25
isolate (source animal id): 156	8 (≈ 15.3 µM)
isolate (source animal id): 157	0.5 (≈ 0.955 µM)
isolate (source animal id): 158	0.5 (≈ 0.955 µM)
isolate (source animal id): 159	≤ 0.25
isolate (source animal id): 160	≤ 0.25
isolate (source animal id): 161	≤ 0.25
isolate (source animal id): 162	8 (≈ 15.3 µM)
isolate (source animal id): 163	0.5 (≈ 0.955 µM)
isolate (source animal id): 164	≤ 0.25
isolate (source animal id): 165	≤ 0.25
isolate (source animal id): 166	≤ 0.25
isolate (source animal id): 167	0.5 (≈ 0.955 µM)
isolate (source animal id): 168	≤ 0.25
isolate (source animal id): 169	0.5 (≈ 0.955 µM)
isolate (source animal id): 170	0.5 (≈ 0.955 µM)
isolate (source animal id): 171	0.5 (≈ 0.955 µM)
isolate (source animal id): 172	≤ 0.25
isolate (source animal id): 173	0.5 (≈ 0.955 µM)
isolate (source animal id): 174	0.5 (≈ 0.955 µM)
isolate (source animal id): 175	0.5 (≈ 0.955 µM)
isolate (source animal id): 176	0.5 (≈ 0.955 µM)
isolate (source animal id): 177	8 (≈ 15.3 µM)
isolate (source animal id): 178	0.5 (≈ 0.955 µM)
isolate (source animal id): 179	≤ 0.25
isolate (source animal id): 180	0.5 (≈ 0.955 µM)
isolate (source animal id): 181	≤ 0.25
isolate (source animal id): 182	0.5 (≈ 0.955 µM)
isolate (source animal id): 183	0.5 (≈ 0.955 µM)
isolate (source animal id): 184	0.5 (≈ 0.955 µM)
isolate (source animal id): 185	0.5 (≈ 0.955 µM)
isolate (source animal id): 186	0.5 (≈ 0.955 µM)
isolate (source animal id): 187	≤ 0.25
isolate (source animal id): 188	> 8
